One test has as its target T1, Hexokinase HKDC1 (Homo sapiens, UniProt Q2TB90).
T1 sequence (Q2TB90 whole entry): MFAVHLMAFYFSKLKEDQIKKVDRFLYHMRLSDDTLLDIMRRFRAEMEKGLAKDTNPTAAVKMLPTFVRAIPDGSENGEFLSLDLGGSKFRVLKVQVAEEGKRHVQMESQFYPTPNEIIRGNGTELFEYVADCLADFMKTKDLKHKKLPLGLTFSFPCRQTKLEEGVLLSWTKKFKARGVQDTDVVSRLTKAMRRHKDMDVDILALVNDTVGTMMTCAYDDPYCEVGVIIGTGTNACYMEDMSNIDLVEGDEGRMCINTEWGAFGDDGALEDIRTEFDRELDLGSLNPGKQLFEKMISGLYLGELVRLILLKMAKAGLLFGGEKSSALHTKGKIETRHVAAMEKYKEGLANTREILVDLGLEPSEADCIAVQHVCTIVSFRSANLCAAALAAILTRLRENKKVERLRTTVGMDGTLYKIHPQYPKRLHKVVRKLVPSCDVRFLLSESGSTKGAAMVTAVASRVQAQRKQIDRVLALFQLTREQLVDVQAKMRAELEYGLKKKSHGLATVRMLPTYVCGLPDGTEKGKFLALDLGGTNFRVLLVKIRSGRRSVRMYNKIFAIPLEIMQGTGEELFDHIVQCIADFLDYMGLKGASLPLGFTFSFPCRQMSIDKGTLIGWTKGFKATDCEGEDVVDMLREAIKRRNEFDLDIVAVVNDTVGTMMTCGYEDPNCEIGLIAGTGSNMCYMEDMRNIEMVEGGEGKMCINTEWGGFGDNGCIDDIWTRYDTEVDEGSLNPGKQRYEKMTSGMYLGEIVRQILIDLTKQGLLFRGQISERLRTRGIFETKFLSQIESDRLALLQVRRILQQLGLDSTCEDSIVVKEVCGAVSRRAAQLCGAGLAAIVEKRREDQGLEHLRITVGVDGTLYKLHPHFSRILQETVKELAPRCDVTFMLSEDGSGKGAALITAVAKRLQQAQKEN
Kind of test: HKDC1 hexokinase inhibitors, dose response, biochemical, W721R variant (AID 504729). It is filed as functional.

The target of test [1] is T2, Sentrin-specific protease 8 (Homo sapiens, UniProt Q96LD8).
T2 sequence (Q96LD8 whole entry): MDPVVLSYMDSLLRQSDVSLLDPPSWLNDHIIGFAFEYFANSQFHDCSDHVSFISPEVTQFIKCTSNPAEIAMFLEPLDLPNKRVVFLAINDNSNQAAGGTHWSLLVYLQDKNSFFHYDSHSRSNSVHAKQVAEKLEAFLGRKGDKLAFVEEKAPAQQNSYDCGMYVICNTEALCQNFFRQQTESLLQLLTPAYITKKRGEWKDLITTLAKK
Kind of test: SENP8 protease inhibitors, SAR follow-up, biochemical, luminescence (AID 504501). It is filed as functional.

The next test addresses T3, Caspase-3 (Homo sapiens, UniProt P42574).
T3 sequence (P42574 whole entry): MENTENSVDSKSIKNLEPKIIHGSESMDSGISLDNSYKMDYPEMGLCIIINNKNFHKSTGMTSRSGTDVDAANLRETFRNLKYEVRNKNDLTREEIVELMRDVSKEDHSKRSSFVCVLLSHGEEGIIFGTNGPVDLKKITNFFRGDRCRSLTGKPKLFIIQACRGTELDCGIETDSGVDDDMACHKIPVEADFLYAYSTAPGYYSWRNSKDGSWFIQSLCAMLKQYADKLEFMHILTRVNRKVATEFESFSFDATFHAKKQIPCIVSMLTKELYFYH
Kind of test: SAR Analysis of small molecule inhibitors of Sentrin-specific proteases (SENPs) using a Caspase-3 Selectivity assay. [Related pubchem assays (depositor defined):AID2540, AID2599, AID434973, AID489001]. It is filed as functional.

Test [2] can be described thus: growth suppression of beta-catenin-knockout colon cells, dose response, cell-based, HCT116, human colon tumor (AID 1045).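 Note: HCT116 colon tumor cells with beta catenin knocked out; cells exposed to compound for 60 hours.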 It is filed as functional.
For the next test, the target named is Nonstructural protein 1 (Influenza A virus, UniProt Q194T2). It is filed as functional, Influenza A virus (A/California/07/2009(H1N1)).
Chain of Nonstructural protein 1 (Q194T2 whole entry): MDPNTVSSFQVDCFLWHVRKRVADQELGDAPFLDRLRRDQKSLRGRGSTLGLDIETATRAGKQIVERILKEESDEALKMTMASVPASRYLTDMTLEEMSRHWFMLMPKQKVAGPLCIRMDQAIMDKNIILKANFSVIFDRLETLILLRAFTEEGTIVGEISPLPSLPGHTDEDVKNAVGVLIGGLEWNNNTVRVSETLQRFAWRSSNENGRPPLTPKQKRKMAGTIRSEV
Another test concerns the target T4, Caspase-6 (Homo sapiens, UniProt P55212).
T4 sequence (P55212 whole entry): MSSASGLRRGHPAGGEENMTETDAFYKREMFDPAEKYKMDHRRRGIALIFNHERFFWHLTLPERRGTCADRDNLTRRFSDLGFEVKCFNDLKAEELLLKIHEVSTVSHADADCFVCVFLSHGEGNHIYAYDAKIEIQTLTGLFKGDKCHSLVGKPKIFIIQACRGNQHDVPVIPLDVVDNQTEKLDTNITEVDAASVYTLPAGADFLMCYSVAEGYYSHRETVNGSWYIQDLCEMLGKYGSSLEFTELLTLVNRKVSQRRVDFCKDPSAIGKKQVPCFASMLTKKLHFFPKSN
The experiment in a line: human caspase-6 inhibitors, dose response, biochemical, VEID-R110 fluorescence, cherry-pick (AID 720632).

We go through 5 compounds from ChEMBL document CHEMBL1201862, “PubChem BioAssay data set” (2004).

Activity calls are given as the source filed them.

The term IC50 denotes the concentration that inhibits the measured activity by half. Consider `O=C(O)CSc1cc(NS(=O)(=O)c2ccc(Cl)cc2)c2ccccc2c1O`, for which, at Hexokinase HKDC1, the IC50 was 4.67 µM (active).

Consider `Oc1ccccc1/C=C/c1noc(-c2ccccc2O)n1`, for which the results for the IC50 (in test [1]; at Caspase-3) were > 99 µM (inactive) and 21 µM (active), respectively.

The EC50 is the concentration at which the effect is half-maximal. With `Cc1nn(-c2ccccc2)c(Cl)c1CN(C(=O)CCl)c1ccc(Cl)cc1`, the EC50 in test [2] is 4.11 µM (active). As for `Cc1cccc(N=Nc2ccc(N(C)C)cc2)c1`, the IC50 on Nonstructural protein 1 was 31.6 µM (active). A word on the AC50: it is the concentration giving half of the maximal activity seen. In the case of `COc1ccccc1N1C(=O)Cc2ccccc2C1=O`, the AC50 at Caspase-6 was 24.2 µM (active).
